Measurements: patent US20150141381A1, “TETRACYCLINE COMPOUNDS HAVING TARGET THERAPEUTIC ACTIVITIES” (Paratek Pharmaceuticals, Inc., priority 2001, published 2015)
Where two headings read alike, the source gives them in different places.

How the values were obtained:
[1] = system: S. aureus RN450; assay: In Vitro Anti-Bacterial Activity Assay (MIC), gram positive; assay type: cell-based; conditions: Staphylococcus aureus, RN450, 18 h
[2] = system: E. coli mL308 225; assay: In Vitro Anti-Bacterial Activity Assay (MIC), gram negative; assay type: cell-based; conditions: Escherichia coli, ML308225, 18 h
[3] = gram positive bacteria, read-out: Antibiotic Activity Gram + (MIC)
[4] = gram negative bacteria, read-out: Antibiotic Activity Gram − (MIC)
[5] = MIC class, Table 3, read-out: Antibiotic Activity Gram +
[6] = MIC class, Table 3, read-out: Antibiotic Activity Gram −
[7] = MIC class, Table 3 (Continued), read-out: Gram+ activity
[8] = MIC class, Table 3 (Continued), read-out: Gram− activity

## COCC(C)CN(C)Cc1cc(N(C)C)c2c(c1O)C(=O)C1=C(O)[C@]3(O)C(=O)C(C(N)=O)=C(O)[C@@H](N(C)C)[C@@H]3C[C@@H]1C2 (some centres unmarked)
[1]; [3]
  MIC: < 4 µg/mL
[2]; [4]
  MIC: > 4 µg/mL

## CN(C)c1cc(NS(=O)(=O)c2ccccc2)c(O)c2c1C[C@H]1C[C@H]3[C@H](N(C)C)C(O)=C(C(N)=O)C(=O)[C@@]3(O)C(O)=C1C2=O [AE]
[1]; [5]
  MIC: < 4 µg/mL
[2]; [6]
  MIC: < 4 µg/mL

## COc1ccc(CN2CCCC2)cc1-c1ccc2c(c1O)C(=O)C1=C(O)[C@]3(O)C(=O)C(C(N)=O)=C(O)[C@@H](N(C)C)[C@@H]3[C@@H](O)[C@@H]1[C@H]2C [HC]
[1]; [5]
  MIC: > 4 µg/mL
[2]; [6]
  MIC: > 4 µg/mL

## CO/N=C/c1ccc(OC)c(-c2ccc(O)c3c2C[C@H]2C[C@H]4[C@H](N(C)C)C(O)=C(C(N)=O)C(=O)[C@@]4(O)C(O)=C2C3=O)c1
[1]; [3]
  MIC: < 4 µg/mL
[2]; [4]
  MIC: < 4 µg/mL

## CN(C)c1cc(-c2ccc(F)c(F)c2)c(O)c2c1C[C@H]1C[C@H]3[C@H](N(C)C)C(O)=C(C(N)=O)C(=O)[C@@]3(O)C(O)=C1C2=O
[1]; [7]
  MIC: < 4 µg/mL
[2]; [8]
  MIC: < 4 µg/mL

## CC1c2ccc(-c3cc4ccccc4o3)c(O)c2C(=O)C2=C(O)[C@]3(O)C(=O)C(C(N)=O)=C(O)[C@@H](N(C)C)[C@@H]3[C@@H](O)[C@@H]21 (some centres unmarked)
[1]; [7]
  MIC: < 4 µg/mL
[2]; [8]
  MIC: < 4 µg/mL

## CN(C)c1cc(C#CC(=O)O)c(O)c2c1C[C@H]1C[C@H]3[C@H](N(C)C)C(O)=C(C(N)=O)C(=O)[C@@]3(O)C(O)=C1C2=O
[1]; [3]
  MIC: > 4 µg/mL
[2]; [4]
  MIC: > 4 µg/mL

## CN(C)c1cc(C#CC2(O)CCCCC2)c(O)c2c1C[C@H]1C[C@H]3[C@H](N(C)C)C(O)=C(C(N)=O)C(=O)[C@@]3(O)C(O)=C1C2=O [AN]
[1]; [5]
  MIC: > 4 µg/mL
[2]; [6]
  MIC: > 4 µg/mL

## CN(C)[C@@H]1C(O)=C(C(N)=O)C(=O)[C@@]2(O)C(O)=C3C(=O)c4c(O)ccc(CNCc5cccn5C)c4C[C@H]3C[C@@H]12 [KG]
[1]; [5]
  MIC: < 4 µg/mL
[2]; [6]
  MIC: < 4 µg/mL

## CN(C)c1cc(CNOC(C)(C)C)c(O)c2c1C[C@H]1C[C@H]3[C@H](N(C)C)C(O)=C(C(N)=O)C(=O)[C@@]3(O)C(O)=C1C2=O
[1]; [3]
  MIC: < 4 µg/mL
[2]; [4]
  MIC: < 4 µg/mL

## C[C@H]1c2c(-c3ccc4c(c3)OCO4)cc(-c3cccc4c3OCO4)c(O)c2C(=O)C2=C(O)[C@]3(O)C(=O)C(C(N)=O)=C(O)[C@@H](N(C)C)[C@@H]3[C@@H](O)[C@@H]21 [HF]
[1]; [5]
  MIC: < 4 µg/mL
[2]; [6]
  MIC: > 4 µg/mL

## C=C(Cl)c1ccc(O)c2c1C[C@H]1C[C@H]3[C@H](N(C)C)C(O)=C(C(N)=O)C(=O)[C@@]3(O)C(O)=C1C2=O [AW]
[1]; [5]
  MIC: < 4 µg/mL
[2]; [6]
  MIC: < 4 µg/mL

## CC(C)ONC(C)c1ccc(O)c2c1C[C@H]1C[C@H]3[C@H](N(C)C)C(O)=C(C(N)=O)C(=O)[C@@]3(O)C(O)=C1C2=O (some centres unmarked)
[1]; [3]
  MIC: < 4 µg/mL
[2]; [4]
  MIC: < 4 µg/mL

## CC(C)COC(=O)Nc1cc(N(C)C)c2c(c1O)C(=O)C1=C(O)[C@]3(O)C(=O)C(C(N)=O)=C(O)[C@@H](N(C)C)[C@@H]3C[C@@H]1C2 [DU]
[1]; [5]
  MIC: < 4 µg/mL
[2]; [6]
  MIC: > 4 µg/mL

## CN(C)c1cc(NC(=O)Nc2cccc3ccccc23)c(O)c2c1C[C@H]1C[C@H]3[C@H](N(C)C)C(O)=C(C(N)=O)C(=O)[C@@]3(O)C(O)=C1C2=O [S]
[1]; [5]
  MIC: < 4 µg/mL
[2]; [6]
  MIC: > 4 µg/mL

## CC1c2cccc(O)c2C(=O)C2=C(O)[C@]3(O)C(=O)C(C(N)=O)=C(O)[C@@H](N(C)C)[C@@H]3[C@@H](OC(=O)CCC(=O)O)[C@@H]21 (some centres unmarked)
[1]; [7]
  MIC: < 4 µg/mL
[2]; [8]
  MIC: > 4 µg/mL

## CN(C)c1cc(CCc2ccc(F)cc2)c(O)c2c1C[C@H]1C[C@H]3[C@H](N(C)C)C(O)=C(C(N)=O)C(=O)[C@@]3(O)C(O)=C1C2=O
[1]; [3]
  MIC: < 4 µg/mL
[2]; [4]
  MIC: < 4 µg/mL

## CN(C)C1C(O)=C(C(N)=O)C(=O)[C@@]2(O)C(O)=C3C(=O)c4c(O)ccc(-c5ccc(CN6CCCC6)cc5)c4C[C@H]3C[C@@H]12 (some centres unmarked) [BT]
[1]; [5]
  MIC: < 4 µg/mL
[2]; [6]
  MIC: < 4 µg/mL

## CN(C)[C@@H]1C(O)=C(C(N)=O)C(=O)[C@@]2(O)C(O)=C3C(=O)c4c(ccc(CNCC(C)(C)C)c4O)C[C@H]3C[C@@H]12 [MZ]
[1]; [5]
  MIC: < 4 µg/mL
[2]; [6]
  MIC: < 4 µg/mL

## CN(C)[C@@H]1C(O)=C(C(N)=O)C(=O)[C@@]2(O)C(O)=C3C(=O)c4c(O)ccc(-c5ccc(CNCc6cccc(Cl)c6)cc5)c4C[C@H]3C[C@@H]12
[1]; [3]
  MIC: < 4 µg/mL
[2]; [4]
  MIC: < 4 µg/mL

## CC1c2cccc(O)c2C(=O)C2=C(O)[C@]3(O)C(=O)C(C(N)=O)=C(O)[C@@H](N(C)C)[C@@H]3[C@@H](OC(=O)C3CCC3)[C@@H]21 (some centres unmarked)
[1]; [7]
  MIC: < 4 µg/mL
[2]; [8]
  MIC: < 4 µg/mL

## CN(C)c1cc(F)c(O)c2c1C[C@H]1C[C@H]3C(N(C)C)C(O)=C(C(N)=O)C(=O)[C@@]3(O)C(O)=C1C2=O (some centres unmarked) [KZ]
[1]; [5]
  MIC: < 4 µg/mL
[2]; [6]
  MIC: < 4 µg/mL

## CCCCCCOC(=O)NCc1cc(N(C)C)c2c(c1O)C(=O)C1=C(O)[C@]3(O)C(=O)C(C(N)=O)=C(O)[C@@H](N(C)C)[C@@H]3C[C@@H]1C2 [FE]
[1]; [5]
  MIC: < 4 µg/mL
[2]; [6]
  MIC: > 4 µg/mL

## CN(C)c1cc(CN2CCC3CCCCC3C2)c(O)c2c1C[C@H]1C[C@H]3[C@H](N(C)C)C(O)=C(C(N)=O)C(=O)[C@@]3(O)C(O)=C1C2=O (some centres unmarked)
[1]; [3]
  MIC: < 4 µg/mL
[2]; [4]
  MIC: < 4 µg/mL

## CN(C)[C@@H]1C(O)=C(C(N)=O)C(=O)[C@@]2(O)C(O)=C3C(=O)c4c(O)ccc(/C=C/c5ccc(C(F)(F)F)cc5)c4C[C@H]3C[C@@H]12
[1]; [3]
  MIC: < 4 µg/mL
[2]; [4]
  MIC: > 4 µg/mL

## CN1CCC(N(C)c2ccc3c(c2O)C(=O)C2=C(O)[C@]4(O)C(=O)C(C(N)=O)=C(O)[C@@H](N(C)C)[C@@H]4C[C@@H]2C3)CC1
[1]; [3]
  MIC: > 4 µg/mL
[2]; [4]
  MIC: > 4 µg/mL

## CCOC(=O)CNCc1ccc(OC)c(-c2ccc(O)c3c2C[C@H]2C[C@H]4[C@H](N(C)C)C(O)=C(C(N)=O)C(=O)[C@@]4(O)C(O)=C2C3=O)c1
[1]; [3]
  MIC: < 4 µg/mL
[2]; [4]
  MIC: < 4 µg/mL

## COc1ccc(-c2ccc(O)c3c2C[C@H]2C[C@H]4[C@H](N(C)C)C(O)=C(C(N)=O)C(=O)[C@@]4(O)C(O)=C2C3=O)cc1 [drawing 3310]
[1]; [7]
  MIC: < 4 µg/mL
[2]; [8]
  MIC: < 4 µg/mL

## CCCCCCc1ccc(O)c2c1C[C@H]1C[C@H]3[C@H](N(C)C)C(O)=C(C(N)=O)C(=O)[C@@]3(O)C(O)=C1C2=O
[1]; [3]
  MIC: < 4 µg/mL
[2]; [4]
  MIC: < 4 µg/mL

## CN(C)[C@@H]1C(O)=C(C(N)=O)C(=O)[C@@]2(O)C(O)=C3C(=O)c4c(O)ccc(Br)c4C[C@H]3C[C@@H]12
[1]; [7]
  MIC: < 4 µg/mL
[2]; [8]
  MIC: < 4 µg/mL

## CN(C)[C@@H]1C(O)=C(C(N)=O)C(=O)[C@@]2(O)C(O)=C3C(=O)c4c(O)ccc(-c5ccncc5F)c4C[C@H]3C[C@@H]12
[1]; [3]
  MIC: < 4 µg/mL
[2]; [4]
  MIC: < 4 µg/mL

## COCCOC(=O)NCc1cc(N(C)C)c2c(c1O)C(=O)C1=C(O)[C@]3(O)C(=O)C(C(N)=O)=C(O)[C@@H](N(C)C)[C@@H]3C[C@@H]1C2
[1]; [3]
  MIC: < 4 µg/mL
[2]; [4]
  MIC: > 4 µg/mL

## Cc1cc(-c2ccc(O)c3c2C[C@H]2C[C@H]4[C@H](N(C)C)C(O)=C(C(N)=O)C(=O)[C@@]4(O)C(O)=C2C3=O)ccc1F
[1]; [3]
  MIC: < 4 µg/mL
[2]; [4]
  MIC: < 4 µg/mL

## COC1CCN(Cc2cc(N(C)C)c3c(c2O)C(=O)C2=C(O)[C@]4(O)C(=O)C(C(N)=O)=C(O)[C@@H](N(C)C)[C@@H]4C[C@@H]2C3)CC1
[1]; [3]
  MIC: < 4 µg/mL
[2]; [4]
  MIC: < 4 µg/mL

## CN(C)[C@@H]1C(O)=C(C(N)=O)C(=O)[C@@]2(O)C(O)=C3C(=O)c4c(O)ccc(-c5ccc(CNCCc6ccc(Cl)cc6)cc5)c4C[C@H]3C[C@@H]12
[1]; [3]
  MIC: < 4 µg/mL
[2]; [4]
  MIC: < 4 µg/mL

## C[C@H]1c2ccc(CN3CCC(F)(F)CC3)c(O)c2C(=O)C2=C(O)[C@]3(O)C(=O)C(C(N)=O)=C(O)[C@@H](N(C)C)[C@@H]3[C@@H](O)[C@@H]21
[1]; [3]
  MIC: < 4 µg/mL
[2]; [4]
  MIC: < 4 µg/mL

## COC(=O)C(CC(C)C)NCc1ccc(OC)c(-c2ccc(O)c3c2C[C@H]2C[C@H]4[C@H](N(C)C)C(O)=C(C(N)=O)C(=O)[C@@]4(O)C(O)=C2C3=O)c1 (some centres unmarked) [FY]
[1]; [5]
  MIC: < 4 µg/mL
[2]; [6]
  MIC: > 4 µg/mL

## CN(C)c1cc(C#CC2=CCCCC2)c(O)c2c1C[C@H]1C[C@H]3[C@H](N(C)C)C(O)=C(C(N)=O)C(=O)[C@@]3(O)C(O)=C1C2=O
[1]; [7]
  MIC: < 4 µg/mL
[2]; [8]
  MIC: < 4 µg/mL

## CN(C)c1cc(NC2CCN(Cc3ccccc3)CC2)c(O)c2c1C[C@H]1C[C@H]3[C@H](N(C)C)C(O)=C(C(N)=O)C(=O)[C@@]3(O)C(O)=C1C2=O [KM]
[1]; [5]
  MIC: > 4 µg/mL
[2]; [6]
  MIC: > 4 µg/mL

## CN(C)[C@@H]1C(O)=C(C(N)=O)C(=O)[C@@]2(O)C(O)=C3C(=O)c4c(O)cccc4/C(=C\c4ccc(C(F)(F)F)cc4)[C@H]3[C@H](O)[C@@H]12 [AC]
[1]; [5]
  MIC: < 4 µg/mL
[2]; [6]
  MIC: > 4 µg/mL
